System: skin
Assay: Bakuchiol penetration to skin from low pH formulations
Settings: in low pH formulations compared to neutral/alkaline pH formulations

SMILES: C=C[C@@](C)(/C=C/c1ccc(O)cc1)CCC=C(C)C [bakuchiol, Bakuchiol]
- Penetration to skin: improved penetration to skin

— patent US20250186317A1, “SKIN CARE COMPOSITION COMPRISING LACTIC ACID, POLYHYDROXY ACID, AND ITS BUFFERING SALT” (The Procter & Gamble Company, priority 2023, published 2025)
